# Data published in PubChem BioAssay AID743471 (Broad Institute, 2014).
# Calls of active or inactive are those of the source.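 How the source made its calls: active means fitted curve drops past -35% activity change at a concentration up to twice the top valid tested dose; inactive means the rest, including activity in the opposite direction.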
# System: not listed separately
# Assay: HepG2 cell cytotoxicity, dose response, cytotoxicity control, luminescence, dry powder, set 12 (AID 743471)
# Conditions: HepG2 viability, ATP luminescence (CellTiter-Glo), 72 h; at 0.8 µM (top of the series)
row,SMILES,"activity change, negative = cytotoxicity"
1,CCN(CCO)CCCOc1ccc2c(Nc3cc(CC(=O)Nc4cccc(F)c4)[nH]n3)ncnc2c1,6.31% (inactive)
2,CC[C@]1(O)CC2CN(CCc3c([nH]c4ccccc34)[C@@](C(=O)OC)(c3cc4c(cc3OC)N(C=O)[C@H]3[C@@](O)(C(=O)OC)[C@H](OC(C)=O)[C@]5(CC)C=CCN6CC[C@]43[C@@H]65)C2)C1 (stereo not given in full),-12.1% (inactive)

# Same assay, conditions: HepG2 viability, ATP luminescence (CellTiter-Glo), 72 h; at 1.35 µM (top of the series)
row,SMILES,"activity change, negative = cytotoxicity"
1,COc1cc([C@@H]2c3cc4c(cc3[C@@H](O[C@@H]3O[C@@H]5CO[C@@H](C)O[C@H]5[C@H](O)[C@H]3O)[C@H]3COC(=O)[C@H]23)OCO4)cc(OC)c1O,-5.5% (inactive)

# Same assay, conditions: HepG2 viability, ATP luminescence (CellTiter-Glo), 72 h; at 8 µM (top of the series)
row,SMILES,"activity change, negative = cytotoxicity"
1,N#CC1=C(N)Oc2cc3c(cc2C1c1cccc(Br)c1)OCO3 (stereo not given),-4.83% (inactive)
2,COc1cccc(S(=O)(=O)N2CC[C@@H]3[C@@H](CO)Nc4ccc(-c5ccc(C#N)cc5)cc4[C@@H]32)c1,25.7% (inactive)

# Same assay, conditions: HepG2 viability, ATP luminescence (CellTiter-Glo), 72 h; at 12 µM (top of the series)
row,SMILES,"activity change, negative = cytotoxicity"
1,COc1ccc(OC)c(-c2nnc3n2N=C(c2ccc(OC)c(OC)c2)CS3)c1,-16.5% (inactive)
2,O=C(Cc1ccc(-c2ccc(OCCN3CCOCC3)cc2)cn1)NCc1ccccc1,-10.2% (inactive)
3,C[C@@]1(C(=O)Nc2ccc(F)nc2)CCCN1c1nc(Nc2cc(C3CC3)[nH]n2)c2cccn2n1,-31.6% (inactive)
4,COc1ccc(NC(=O)Nc2ccc3c(c2)C(=O)N([C@@H](C)CO)C[C@H](C)[C@H](CN(C)Cc2ccc4c(c2)OCO4)O3)cc1,-13.2% (inactive)

# Same assay, conditions: HepG2 viability, ATP luminescence (CellTiter-Glo), 72 h; at 26 µM (top of the series)
row,SMILES,"activity change, negative = cytotoxicity"
1,Clc1ccccc1-c1nnc2n1N=C(c1ccc3c(c1)OCO3)CS2,-25.1% (inactive)
2,Cc1ccc(S(=O)(=O)N2CC[C@@H]3[C@@H](CO)Nc4ccc(-c5ccc(C#N)cc5)cc4[C@@H]32)cc1,-7.83% (inactive)
3,N#CC1=C(N)Oc2cc(N)ccc2C1c1ccccc1Cl (stereo not given),-2.14% (inactive)
4,COc1ccccc1-c1nnc2n1N=C(c1ccc3c(c1)OCO3)CS2,-11.4% (inactive)
5,COc1ccc(S(=O)(=O)N2CC[C@@H]3[C@@H](CO)N(C)c4ccc(-c5ccc(F)cc5)cc4[C@@H]32)cc1,-2.59% (inactive)
6,COc1cc(C2C(C#N)=C(N)Oc3cc(N(C)C)ccc32)cc2c1OCO2 (stereo not given),-11.7% (inactive)
7,COc1ccccc1C1C(C#N)=C(N)Oc2cc(N)ccc21 (stereo not given),4.04% (inactive)
8,N#CC1=C(N)Oc2cc(OC(=O)c3ccccc3)ccc2C1c1cccc(Br)c1 (stereo not given),-8.31% (inactive)
9,N#Cc1ccc(-c2ccc3c(c2)[C@H]2[C@H](CCN2S(=O)(=O)c2ccccc2F)[C@@H](CO)N3)cc1,-18.6% (inactive)
10,N#CC1=C(N)Oc2cc(N)ccc2C1c1ccc(Cl)cc1 (stereo not given),-15.5% (inactive)
11,COc1ccc(C2C(C#N)=C(N)Oc3cc(N)ccc32)cc1 (stereo not given),-5.71% (inactive)
12,CN(C)c1ccc2c(c1)OC(N)=C(C#N)C2c1cccc(F)c1 (stereo not given),-8.25% (inactive)
13,CN(C(=O)CCCOc1ccc2[nH]c(=O)ccc2c1)C1CCCCC1,-11.4% (inactive)
14,COc1ccc(S(=O)(=O)N2CC[C@@H]3[C@H](CO)Nc4ccc(-c5ccc(C#N)cc5)cc4[C@@H]32)cc1,-32.1% (inactive)
15,Cc1ccc(C2C(C#N)=C(N)Oc3cc(N)ccc32)cc1 (stereo not given),1.29% (inactive)
16,N#CC1=C(N)Oc2cc(N)ccc2C1c1ccc2ccccc2c1 (stereo not given),-25.4% (inactive)
17,Cc1ccccc1C1C(C#N)=C(N)Oc2cc(N)ccc21 (stereo not given),0.564% (inactive)
18,Cc1c([C@H](C(Cl)Cl)[C@H](O)[C@H]2C[C@H](C)C(=O)O2)ccc2c1C(=O)[C@H]1[C@H]2C[C@@H](Br)[C@@]23O[C@@H](CO[C@H]2O)C[C@]13C,-19.2% (inactive)
19,Cc1ccc([N+](=O)[O-])cc1S(=O)(=O)N(C)C,-2.85% (inactive)

row,SMILES,"activity change, negative = cytotoxicity"
1,N#CC1=C(N)Oc2cc(N)ccc2C12C(=O)Nc1ccc(Br)cc12 (stereo not given),-10.7% (inactive)
2,N#CC1=C(N)Oc2cc(N)ccc2C1c1cccc(F)c1 (stereo not given),-15.7% (inactive)
3,C[C@]1(c2nc3c(C(N)=O)cccc3[nH]2)CCCN1,-5.99% (inactive)
4,CCCCc1ccc2nc(NC(=O)OC)[nH]c2c1,-18.5% (inactive)
5,COC(=O)c1ccc(C2C(C#N)=C(N)Oc3cc(N)ccc32)cc1 (stereo not given),6.98% (inactive)
6,COc1ccc(OC)c(-c2nnc3n2N=C(c2ccc(OC)c(OC)c2)CS3)c1,-21.2% (inactive)
7,N#CC1=C(N)Oc2cc(N)ccc2C1c1cccc(Br)c1 (stereo not given),-3.92% (inactive)
8,Cc1cccc(C2C(C#N)=C(N)Oc3cc(N)ccc32)c1 (stereo not given),-14.7% (inactive)
9,CN1c2ccc(-c3ccc(C#N)cc3)cc2[C@H]2[C@H](CCN2S(=O)(=O)c2cccc(F)c2)[C@H]1CO,-20.9% (inactive)
10,COc1ccccc1S(=O)(=O)N1CC[C@@H]2[C@@H](CO)Nc3ccc(-c4ccc(C#N)cc4)cc3[C@@H]21,-11.4% (inactive)
11,O=C(Nc1c(Cl)cncc1Cl)c1ccc(OC(F)F)c(OCC2CC2)c1,5.78% (inactive)
12,COc1ccc(CNc2nc(N3CCC[C@H]3CO)ncc2C(=O)NCc2ncccn2)cc1Cl,-10.6% (inactive)
13,CCC(C)(C)C(=O)O[C@H]1C[C@@H](C)C=C2C=C[C@H](C)[C@H](CC[C@@H]3C[C@@H](O)CC(=O)O3)[C@H]21,1.04% (inactive)
14,COc1cc(Nc2ncc3c(n2)-c2ccc(Cl)cc2C(c2c(F)cccc2OC)=NC3)ccc1C(=O)O,-12.9% (inactive)
15,COc1cccc(C2C(C#N)=C(N)Oc3cc(N)ccc32)c1 (stereo not given),-11.2% (inactive)
16,CN1c2ccc(-c3ccc(C#N)cc3)cc2[C@H]2[C@H](CCN2S(=O)(=O)c2ccc(F)cc2)[C@H]1CO,20.9% (inactive)
17,COc1ccc(C2CNC(=O)C2)cc1OC1CCCC1 (stereo not given),15.7% (inactive)
18,COc1ccc(S(=O)(=O)N(C(C)=O)c2ccc(OC(C)=O)c3ccccc23)cc1[N+](=O)[O-],-15.5% (inactive)

# Same assay, conditions: HepG2 viability, ATP luminescence (CellTiter-Glo), 72 h; at 50 µM (top of the series)
row,SMILES,"activity change, negative = cytotoxicity"
1,O=P1(NCCCl)OCCCN1CCCl (stereo not given),7.58% (inactive)

# Same assay, conditions: HepG2 viability, ATP luminescence (CellTiter-Glo), 72 h; at 110 µM (top of the series)
row,SMILES,"activity change, negative = cytotoxicity"
1,O=C(c1cc(Cc2n[nH]c(=O)c3ccccc23)ccc1F)N1CCN(C(=O)C2CC2)CC1,-17.3% (inactive)

# System: HepG2 viability, ATP luminescence (CellTiter-Glo), 72 h
# Assay: as above
# Conditions: not given
row,SMILES,AC35
1,COc1ccccc1-c1nnc2n1N=C(c1ccc(O)c(O)c1)CS2,19.2 µM
2,C=C([C@@H](O)[C@@H](C)O)[C@@H](OC)[C@]1(C)Cc2cc3cc(O[C@H]4CC(OC5CC(O)C(O)C(C)O5)C(O)C(C)O4)cc(O)c3c(O)c2C(=O)[C@H]1OC1CC(OC2CC(OC3CC(C)(O)C(O)C(C)O3)C(O)C(C)O2)C(O)C(C)O1 (stereo not given in full),0.116 µM
3,CN1CCN(CCOc2cc(OC3CCOCC3)c3c(Nc4c(Cl)ccc5c4OCO5)ncnc3c2)CC1,25.4 µM
4,CCc1c2c(nc3ccc(O)cc13)-c1cc3c(c(=O)n1C2)COC(=O)C3(O)CC (stereo not given),0.241 µM
5,Cn1cc(-c2ccncc2)c(-c2ccc(OCc3ccc4ccccc4n3)cc2)n1,12.9 µM
6,COc1ccc(S(=O)(=O)N2CC[C@@H]3[C@@H](CO)Nc4ccc(-c5ccc(C#N)cc5)cc4[C@@H]32)cc1,12.2 µM
7,COc1ccc(-c2cc(NC(C)=O)c3ncc(-c4ccc(OC)c(OC)c4)n3c2)cc1,17.9 µM
